Data on 20 compounds can be found in patent publication US20260242391A1 (priority 2023, published 2026).

Series [1] concerns HL-60. In words: HL-60 differentiation potency. The note with it: Homo sapiens. Format: cell-based.
A short description of series [2]: in vitro. The note with it: human.

Regarding `C[C@H]1[C@@H](Oc2ccc(COCC(=O)O)cc2)O[C@@H]2O[C@@]3(C)CC[C@H]4[C@H](C)CC[C@@H]1[C@@]24OO3` [Compound 219, 2-((4-(((3R,5aS,6R,8aS, 9R,10S,12R, 12aR)-3,6,9-trimethyldeca-hydro-12H-3,12-epoxy[1,2]dioxepino[4,3-i]isochromen-10-yl)oxy)benzyl)oxy)acetic acid], the EC50 in series [1] amounted to 0.062 µM. For the same compound, the half-inhibitory concentration (IC50) in series [2] was found to be 13.1 µM.
For `C[C@H]1[C@@H](Oc2ccc(C(=O)N3[C@H](C(=O)O)C[C@@H]4C[C@@H]43)cc2)O[C@@H]2O[C@@]3(C)CC[C@H]4[C@H](C)CC[C@@H]1[C@@]24OO3` [Compound 258, (1S,3S,5S)-2-(4-(((3R,5aS,6R,8aS, 9R,10S,12R, 12aR)-3,6,9-trimethyldeca-hydro-12H-3,12-epoxy[1,2]dioxepino[4,3-i]isochromen-10-yl)oxy)benzoyl)-2-azabicyclo [3.1.0]hexane-3-carboxylic acid], in series [1], the concentration giving a half-maximal response (EC50) is over 20 µM. Also, the 50% inhibitory concentration (IC50) in series [2] was over 20 µM.
For the compound `C[C@H]1[C@@H](OCc2ccc(C(=O)O)c(OC(F)(F)F)c2)O[C@@H]2O[C@@]3(C)CC[C@H]4[C@H](C)CC[C@@H]1[C@@]24OO3` [Compound 298, 2-(trifluoro-methoxy)-4-((((3R,5aS,6R,8aS, 9R,10S,12R, 12aR)-3,6,9-trimethyldeca-hydro-12H-3,12-epoxy[1,2]dioxepino[4,3-i]isochromen-10-yl)oxy)methyl) benzoic acid], in series [1], the EC50 turned out to be 0.0531 µM. In addition, in series [2], the IC50 was over 20 µM.
On to `C[C@H]1[C@@H](Oc2ccc(C(=O)N[C@H](C(=O)O)C3CCC3)cc2)O[C@@H]2O[C@@]3(C)CC[C@H]4[C@H](C)CC[C@@H]1[C@@]24OO3` [Compound 251, (S)-2-cyclobutyl-2-(4-(((3R,5aS,6R,8aS, 9R,10S,12R, 12aR)-3,6,9-trimethyldeca-hydro-12H-3,12-epoxy[1,2]dioxepino[4,3-i]isochromen-10-yl)oxy)benzamido) acetic acid], for which the half-maximal effective concentration (EC50) in series [1] amounted to 0.0982 µM. Besides, the IC50 in series [2] was found to be 1.52 µM.
On the same counts, the results for `C[C@H]1[C@@H](Oc2ccc(C(C)(C)C(=O)O)cc2F)O[C@@H]2O[C@@]3(C)CC[C@H]4[C@H](C)CC[C@@H]1[C@@]24OO3` [Compound 270, 2-(3-fluoro-4-(((3R,5aS,6R,8aS, 9R,10S,12R, 12aR)-3,6,9-trimethyldeca-hydro-12H-3,12-epoxy[1,2]dioxepino[4,3-i]isochromen-10-yl)oxy)phenyl)-2-methyl-propanoic acid] are 0.0286 µM and 0.7 µM.
On the same counts, the results for `C[C@H]1[C@@H](OC[C@H]2CC[C@@H](C(=O)N3CC[C@@H](C(=O)O)C3)CC2)O[C@@H]2O[C@@]3(C)CC[C@H]4[C@H](C)CC[C@@H]1[C@@]24OO3` [Compound 263, (R)-1-((1R,4S)-4-((((3R,5aS,6R,8aS, 9R,10S,12R, 12aR)-3,6,9-trimethyldeca-hydro-12H-3,12-epoxy[1,2]dioxepino[4,3-i]isochromen-10-yl)oxy)methyl)cyclohexane-1-carbonyl) pyrrolidine-3-carboxylic acid] are 0.374 µM and 16.8 µM.
The matching figures for `C[C@H]1[C@@H](OCc2c(F)cc(C(=O)N[C@H]3CC[C@@H](C(=O)O)C3)cc2F)O[C@@H]2O[C@@]3(C)CC[C@H]4[C@H](C)CC[C@@H]1[C@@]24OO3` [Compound 309, (1R,3S)-3-(3,5-difluoro-4-((((3R,5aS,6R,8aS, 9R,10S,12R, 12aR)-3,6,9-trimethyldeca-hydro-12H-3,12-epoxy[1,2]dioxepino[4,3-i]isochromen-10-yl)oxy)methyl)benzamido) cyclopentane-1-carboxylic acid]: 0.0313 µM and 1.74 µM.
Consider `C[C@H]1[C@H](OCC23[C@H]4[C@H]5[C@@H]2[C@H]2[C@@H]3[C@@H]4C52C(=O)O)O[C@@H]2O[C@@]3(C)CC[C@H]4[C@H](C)CC[C@@H]1[C@@]24OO3` (stereo partly drawn) [Compound 260, (2R,3R,5R,6R,7R, 8R)-4-((((3R,5aS,6R,8aS, 9R,10R,12R, 12aR)-3,6,9-trimethyldeca-hydro-12H-3,12-epoxy[1,2]dioxepino[4,3-i]isochromen-10-yl)oxy)methyl) cubane-1-carboxylic acid], for which the EC50 in series [1] amounted to 0.422 µM. Also, the IC50 in series [2] was over 20 µM.
On the same counts, the results for `C[C@H]1[C@@H](Oc2cc(Cl)cc(CC(=O)O)c2)O[C@@H]2O[C@@]3(C)CC[C@H]4[C@H](C)CC[C@@H]1[C@@]24OO3` [Compound 186, 2-(3-chloro-5-(((3R,5aS,6R,8aS, 9R,10S,12R, 12aR)-3,6,9-trimethyldeca-hydro-12H-3,12-epoxy[1,2]dioxepino[4,3-i]isochromen-10-yl)oxy)phenyl) acetic acid] are 0.0624 µM and 4 µM.
On the same counts, the results for `C[C@H]1[C@@H](Oc2ccc([C@H](C)C(=O)O)cc2F)O[C@@H]2O[C@@]3(C)CC[C@H]4[C@H](C)CC[C@@H]1[C@@]24OO3` [Compound 282, (S)-2-(3-fluoro-4-(((3R,5aS,6R,8aS, 9R,10S,12R, 12aR)-3,6,9-trimethyldeca-hydro-12H-3,12-epoxy[1,2]dioxepino[4,3-i]isochromen-10-yl)oxy)phenyl) propanoic acid] are 0.0127 µM and 4.82 µM.
On the same counts, the results for `C[C@H]1[C@@H](OC[C@H]2CC[C@@H](C(=O)N[C@H]3C[C@@H](C(=O)O)C3)CC2)O[C@@H]2O[C@@]3(C)CC[C@H]4[C@H](C)CC[C@@H]1[C@@]24OO3` [Compound 241, (1S,3s)-3-((1R,4S)-4-((((3R,5aS,6R,8aS, 9R,10S,12R, 12aR)-3,6,9-trimethyldeca-hydro-12H-3,12-epoxy[1,2]dioxepino[4,3-i]isochromen-10-yl)oxy)methyl)cyclohexane-1-carboxamido) cyclobutane-1-carboxylic acid] are 0.214 µM and 18.8 µM.
In series [1], `C[C@H]1[C@@H](Oc2ccc(C(=O)N[C@H]3CC[C@@H](C(=O)O)C3)cc2Cl)O[C@@H]2O[C@@]3(C)CC[C@H]4[C@H](C)CC[C@@H]1[C@@]24OO3` [Compound 232, (1R,3S)-3-(3-chloro-4-(((3R,5aS,6R,8aS, 9R,10S,12R, 12aR)-3,6,9-trimethyldeca-hydro-12H-3,12-epoxy[1,2]dioxepino[4,3-i]isochromen-10-yl)oxy)benzamido)cyclo-pentane-1-carboxylic acid] returned an EC50 of 0.0299 µM. For the same compound, the half-maximal inhibitory concentration (IC50) in series [2] was found to be 0.62 µM.
As for `C[C@H]1[C@@H](Oc2ccc(C(=O)N[C@H](C(=O)O)C3CCCCC3)cc2)O[C@@H]2O[C@@]3(C)CC[C@H]4[C@H](C)CC[C@@H]1[C@@]24OO3` [Compound 231, (S)-2-cyclohexyl-2-(4-(((3R,5aS,6R,8aS, 9R,10S,12R, 12aR)-3,6,9-trimethyldeca-hydro-12H-3,12-epoxy[1,2]dioxepino[4,3-i]isochromen-10-yl)oxy)benzamido)acetic acid], the concentration for a half-maximal effect (EC50) in series [1] came out at 0.017 µM. In addition, in series [2], the IC50 was 0.08 µM.
On the same counts, the results for `C[C@H]1[C@@H](Oc2ccccc2OCC(=O)O)O[C@@H]2O[C@@]3(C)CC[C@H]4[C@H](C)CC[C@@H]1[C@@]24OO3` [Compound 230, 2-(2-(((3R,5aS,6R,8aS, 9R,10S,12R, 12aR)-3,6,9-trimethyldeca-hydro-12H-3,12-epoxy[1,2]dioxepino[4,3-i]isochromen-10-yl)oxy)phenoxy) acetic acid] are 2.87 µM and over 20 µM.
The matching figures for `C[C@H]1[C@@H](Oc2ccc([C@@H](C)C(=O)O)cc2F)O[C@@H]2O[C@@]3(C)CC[C@H]4[C@H](C)CC[C@@H]1[C@@]24OO3` [Compound 279, (R)-2-(3-fluoro-4-(((3R,5aS,6R,8aS, 9R,10S,12R, 12aR)-3,6,9-trimethyldeca-hydro-12H-3,12-epoxy[1,2]dioxepino[4,3-i]isochromen-10-yl)oxy)phenyl) propanoic acid]: 0.0268 µM and 4.86 µM.
The matching figures for `C[C@H]1[C@@H](Oc2ccc(CC(=O)N[C@H]3CC[C@H](C(=O)O)C3)cc2)O[C@@H]2O[C@@]3(C)CC[C@H]4[C@H](C)CC[C@@H]1[C@@]24OO3` [Compound 307, (1S,3S)-3-(2-(4-(((3R,5aS,6R,8aS, 9R,10S,12R, 12aR)-3,6,9-trimethyldeca-hydro-12H-3,12-epoxy[1,2]dioxepino[4,3-i]isochromen-10-yl)oxy)phenyl)acetamido) cyclopentane-1-carboxylic acid]: 0.0259 µM and 11.7 µM.
`C[C@H]1[C@@H](OCC23[C@H]4[C@H]5[C@@H]2[C@H]2[C@@H]3[C@@H]4C52C(=O)O)O[C@@H]2O[C@@]3(C)CC[C@H]4[C@H](C)CC[C@@H]1[C@@]24OO3` (stereo partly drawn) [Compound 253, (2S,3S,5S,6S,7S, 8S)-4-((((3R,5aS,6R,8aS, 9R,10S,12R, 12aR)-3,6,9-trimethyldeca-hydro-12H-3,12-epoxy[1,2]dioxepino[4,3-i]isochromen-10-yl)oxy)methyl) cubane-1-carboxylic acid] returned an EC50 in series [1] of 0.237 µM. Also, the IC50 in series [2] is over 20 µM.
The matching figures for `Cc1cc(C(=O)O)cc(Cl)c1CO[C@H]1O[C@@H]2O[C@@]3(C)CC[C@H]4[C@H](C)CC[C@@H]([C@H]1C)[C@@]24OO3` [Compound 280, 3-chloro-5-methyl-4-((((3R,5aS,6R,8aS, 9R,10S,12R, 12aR)-3,6,9-trimethyldeca-hydro-12H-3,12-epoxy[1,2]dioxepino[4,3-i]isochromen-10-yl)oxy)methyl) benzoic acid]: 0.246 µM and 3.22 µM.
The matching figures for `CC(C)[C@H](Oc1ccc(O[C@H]2O[C@@H]3O[C@@]4(C)CC[C@H]5[C@H](C)CC[C@@H]([C@H]2C)[C@@]35OO4)cc1)C(=O)O` [Compound 261, (S)-3-methyl-2-(4-(((3R,5aS,6R,8aS, 9R,10S,12R, 12aR)-3,6,9-trimethyldeca-hydro-12H-3,12-epoxy[1,2]dioxepino[4,3-i]isochromen-10-yl)oxy)phenoxy) butanoic acid]: under 0.01 µM and 0.36 µM.
Compound `C[C@H]1[C@@H](Oc2c(F)cc(OCC(=O)O)cc2F)O[C@@H]2O[C@@]3(C)CC[C@H]4[C@H](C)CC[C@@H]1[C@@]24OO3` [Compound 238, 2-(3,5-difluoro-4-(((3R,5aS,6R,8aS, 9R,10S,12R, 12aR)-3,6,9-trimethyldeca-hydro-12H-3,12-epoxy[1,2]dioxepino[4,3-i]isochromen-10-yl)oxy)phenoxy) acetic acid] returned an EC50 in series [1] of 0.0713 µM. Besides, in series [2], the IC50 worked out at 6.91 µM.

As usually defined, the EC50 is the concentration needed to bring the measured effect to its halfway point. A lower EC50 goes with greater potency. In general, IC50 refers to the point on the concentration scale where inhibition reaches its midpoint. A low value points to higher potency.
